From patent publication US6653455B1, “Crystallization of doxorubicin hydrochloride” (Mercian Corporation, priority 1998, dated 2003)
Counter-ions that a name gives are not always drawn.

assay: Hygroscopicity, cup method (weight change); type: physicochemical; details: weight-increasing rate, 25° C., 50 to 60% RH, 15 minutes; crystals dried at 40° C. under vacuum; hydrochloride
Protocol: Determined by the following cup method. To be specific, about 15 to 20 mg of the sample was put in a cylindrical cup having a diameter of 6 mm and a depth of 6 mm and left standing at a fixed temperature (25° C.) and relative humidity (50 to 60% RH) for 15 minutes to measure a weight change, whereby the hygroscopicity was evaluated.
In the following respective examples, a weight-increasing rate of 0.40% or more is shown by an evaluation criterion that the hygroscopicity is large (−); a weight-increasing rate of 0.20% or more and less than 0.40% is shown by an evaluation criterion that the hygroscopicity is ;intermediate (±); and a weight-increasing rate of less than 0.20% is shown by an evaluation criterion that the hygroscopicity is small: (+).

Row | Compound | Hygroscopicity
1 | COc1cccc2c1C(=O)c1c(O)c3c(c(O)c1C2=O)C[C@@](O)(C(=O)CO)C[C@@H]3O[C@H]1C[C@H](N)[C@H](O)[C@H](C)O1 [Example 2, doxorubicin hydrochloride] | − (a weight-increasing rate of 0.40% or more is shown by an evaluation criterion that the hygroscopicity is large (−))
2 | COc1cccc2c1C(=O)c1c(O)c3c(c(O)c1C2=O)C[C@@](O)(C(=O)CO)C[C@@H]3O[C@H]1C[C@H](N)[C@H](O)[C@H](C)O1 [Example 20, doxorubicin hydrochloride] | + (a weight-increasing rate of less than 0.20% is shown by an evaluation criterion that the hygroscopicity is small: (+))
3 | COc1cccc2c1C(=O)c1c(O)c3c(c(O)c1C2=O)C[C@@](O)(C(=O)CO)C[C@@H]3O[C@H]1C[C@H](N)[C@H](O)[C@H](C)O1 [Example 21, doxorubicin hydrochloride] | + (a weight-increasing rate of less than 0.20% is shown by an evaluation criterion that the hygroscopicity is small: (+))
4 | COc1cccc2c1C(=O)c1c(O)c3c(c(O)c1C2=O)C[C@@](O)(C(=O)CO)C[C@@H]3O[C@H]1C[C@H](N)[C@H](O)[C@H](C)O1 [Example 22, doxorubicin hydrochloride] | + (a weight-increasing rate of less than 0.20% is shown by an evaluation criterion that the hygroscopicity is small: (+))
5 | COc1cccc2c1C(=O)c1c(O)c3c(c(O)c1C2=O)C[C@@](O)(C(=O)CO)C[C@@H]3O[C@H]1C[C@H](N)[C@H](O)[C@H](C)O1 [Example 23, doxorubicin hydrochloride] | ± (a weight-increasing rate of 0.20% or more and less than 0.40% is shown by an evaluation criterion that the hygroscopicity is ;intermediate (±))
6 | COc1cccc2c1C(=O)c1c(O)c3c(c(O)c1C2=O)C[C@@](O)(C(=O)CO)C[C@@H]3O[C@H]1C[C@H](N)[C@H](O)[C@H](C)O1 [Example 24, doxorubicin hydrochloride] | + (a weight-increasing rate of less than 0.20% is shown by an evaluation criterion that the hygroscopicity is small: (+))
7 | COc1cccc2c1C(=O)c1c(O)c3c(c(O)c1C2=O)C[C@@](O)(C(=O)CO)C[C@@H]3O[C@H]1C[C@H](N)[C@H](O)[C@H](C)O1 [Example 28, doxorubicin hydrochloride] | + (a weight-increasing rate of less than 0.20% is shown by an evaluation criterion that the hygroscopicity is small: (+))
8 | COc1cccc2c1C(=O)c1c(O)c3c(c(O)c1C2=O)C[C@@](O)(C(=O)CO)C[C@@H]3O[C@H]1C[C@H](N)[C@H](O)[C@H](C)O1 [Example 30, doxorubicin hydrochloride] | + (a weight-increasing rate of less than 0.20% is shown by an evaluation criterion that the hygroscopicity is small: (+))
9 | COc1cccc2c1C(=O)c1c(O)c3c(c(O)c1C2=O)C[C@@](O)(C(=O)CO)C[C@@H]3O[C@H]1C[C@H](N)[C@H](O)[C@H](C)O1 [Example 32, doxorubicin hydrochloride] | + (a weight-increasing rate of less than 0.20% is shown by an evaluation criterion that the hygroscopicity is small: (+))
10 | COc1cccc2c1C(=O)c1c(O)c3c(c(O)c1C2=O)C[C@@](O)(C(=O)CO)C[C@@H]3O[C@H]1C[C@H](N)[C@H](O)[C@H](C)O1 [Example 33, doxorubicin hydrochloride] | ± (a weight-increasing rate of 0.20% or more and less than 0.40% is shown by an evaluation criterion that the hygroscopicity is ;intermediate (±))
11 | COc1cccc2c1C(=O)c1c(O)c3c(c(O)c1C2=O)C[C@@](O)(C(=O)CO)C[C@@H]3O[C@H]1C[C@H](N)[C@H](O)[C@H](C)O1 [Example 34, doxorubicin hydrochloride] | ± (a weight-increasing rate of 0.20% or more and less than 0.40% is shown by an evaluation criterion that the hygroscopicity is ;intermediate (±))

assay: Average particle diameter, microscopic method (Heywood circle-corresponding diameter); type: physicochemical; details: 10 typical crystals on photograph, hydrochloride
From the text: The average particle diameter is shown by a diameter of a circle having the same area as an injected area of the particle, a so-called Heywood diameter (circle-corresponding diameter) according to a microscopic method (injected image). A small amount of the crystals was put on a slide glass, and 1 to 2 drops of a hydrophilic surfactant (sesquioleic acid sorbitan) were fallen thereon to disperse them. It was photographed by means of a polarization microscope (photographing lens: 3.3 magnifications, objective lens: 20 magnifications) equipped with a photographing device. Optional 10 pieces of the typical crystals were selected on the photograph to measure a long diameter and a short diameter thereof An (projected) area of the particle was shown by long diameter×short diameter, and the particle diameter was shown by a diameter of a circle having the same area as that obtained above.

Row | Average particle diameter | Compound
12 | <4 μm | COc1cccc2c1C(=O)c1c(O)c3c(c(O)c1C2=O)C[C@@](O)(C(=O)CO)C[C@@H]3O[C@H]1C[C@H](N)[C@H](O)[C@H](C)O1 [Example 2, doxorubicin hydrochloride]
13 | 7 μm | COc1cccc2c1C(=O)c1c(O)c3c(c(O)c1C2=O)C[C@@](O)(C(=O)CO)C[C@@H]3O[C@H]1C[C@H](N)[C@H](O)[C@H](C)O1 [Example 20, doxorubicin hydrochloride]
14 | 54 μm | COc1cccc2c1C(=O)c1c(O)c3c(c(O)c1C2=O)C[C@@](O)(C(=O)CO)C[C@@H]3O[C@H]1C[C@H](N)[C@H](O)[C@H](C)O1 [Example 21, doxorubicin hydrochloride]
15 | 47 μm | COc1cccc2c1C(=O)c1c(O)c3c(c(O)c1C2=O)C[C@@](O)(C(=O)CO)C[C@@H]3O[C@H]1C[C@H](N)[C@H](O)[C@H](C)O1 [Example 22, doxorubicin hydrochloride]
16 | 39 μm | COc1cccc2c1C(=O)c1c(O)c3c(c(O)c1C2=O)C[C@@](O)(C(=O)CO)C[C@@H]3O[C@H]1C[C@H](N)[C@H](O)[C@H](C)O1 [Example 23, doxorubicin hydrochloride]
17 | 51 μm | COc1cccc2c1C(=O)c1c(O)c3c(c(O)c1C2=O)C[C@@](O)(C(=O)CO)C[C@@H]3O[C@H]1C[C@H](N)[C@H](O)[C@H](C)O1 [Example 24, doxorubicin hydrochloride]
18 | 37 μm | COc1cccc2c1C(=O)c1c(O)c3c(c(O)c1C2=O)C[C@@](O)(C(=O)CO)C[C@@H]3O[C@H]1C[C@H](N)[C@H](O)[C@H](C)O1 [Example 28, doxorubicin hydrochloride]
19 | 39 μm | COc1cccc2c1C(=O)c1c(O)c3c(c(O)c1C2=O)C[C@@](O)(C(=O)CO)C[C@@H]3O[C@H]1C[C@H](N)[C@H](O)[C@H](C)O1 [Example 30, doxorubicin hydrochloride]
20 | 34 μm | COc1cccc2c1C(=O)c1c(O)c3c(c(O)c1C2=O)C[C@@](O)(C(=O)CO)C[C@@H]3O[C@H]1C[C@H](N)[C@H](O)[C@H](C)O1 [Example 32, doxorubicin hydrochloride]
21 | 25 μm | COc1cccc2c1C(=O)c1c(O)c3c(c(O)c1C2=O)C[C@@](O)(C(=O)CO)C[C@@H]3O[C@H]1C[C@H](N)[C@H](O)[C@H](C)O1 [Example 33, doxorubicin hydrochloride]
22 | 23 μm | COc1cccc2c1C(=O)c1c(O)c3c(c(O)c1C2=O)C[C@@](O)(C(=O)CO)C[C@@H]3O[C@H]1C[C@H](N)[C@H](O)[C@H](C)O1 [Example 34, doxorubicin hydrochloride]

assay: Solubility test (dissolving time in water); type: physicochemical; details: 50 mg sample in 5 ml water, 25° C., about 600 rounds/minute stirring, time until completely dissolved; hydrochloride
Protocol: A beaker of 20 ml (minor diameter: 30 mm) was charged with 5 ml of water and then 50 mg of a DOX.HCl crystal sample, and the sample was stirred at 25° C. and about 600 rounds/minute by means of a magnetic stirrer (diameter 6 mm×length 10 mm). Time consumed until the sample was completely dissolved was measured wile observing the dissolving state every 30 seconds with naked eyes.
The solubility test described above was carried out for a DXR.USP standard product (Lot J) (average particle diameter: 28 μm) as comparison and Examples 2, 46,51, 55, 56, 57 and 58, and the results thereof are shown in Table III.

Row | Dissolving time | Compound
23 | 4 to 4.5 min | COc1cccc2c1C(=O)c1c(O)c3c(c(O)c1C2=O)C[C@@](O)(C(=O)CO)C[C@@H]3O[C@H]1C[C@H](N)[C@H](O)[C@H](C)O1 [Example 2, doxorubicin hydrochloride]
